Earlier results in patent US11400063B2, “Early administration of low-dose colchicine after myocardial infarction” (INSTITUT DE CARDIOLOGIE DE MONTREAL, priority 2019, dated 2022).
Like-named read-outs stand apart in the source and are kept apart here.

How the values were obtained:
[1] = test system: patients with acute coronary syndromes (ACS); conditions: COPS, cited from earlier work
patients with stable CAD = conditions: cited from earlier work

For COc1cc2c(c(OC)c1OC)-c1ccc(OC)c(=O)cc1[C@@H](NC(C)=O)CC2 [Colchicine, colchicine], the “Primary composite outcome (cardiovascular mortality, myocardial infarction, ischemic stroke, urgent revascularization), Events N” value ([1]; N = 396, median follow-up 12 months) is listed as 19 N, the “Cardiovascular mortality, HR (95% CI)” value ([1]; colchicine vs placebo) is listed as 3.09 (0.32-29.71) and the “Ischemic stroke, HR (95% CI)” value ([1]; colchicine vs placebo) is listed as 0.34 (0.07-1.70). The “Myocardial infarction, HR (95% CI)” value ([1]; colchicine vs placebo) was 0.52 (0.25-1.07), the “Primary composite outcome, HR (95% CI)” value ([1]; colchicine vs placebo) was 0.47 (0.27-0.82) and the “Urgent coronary revascularization, HR (95% CI)” value ([1]; colchicine vs placebo) was 0.26 (0.07-0.92). For the same compound, the “all-cause mortality, HR” value ([1]; colchicine vs placebo) was 8.20, the “Cardiovascular mortality, Events %” value [1] was 0.8% and the “Cardiovascular mortality, Events N” value [1] was 3 N. The “Ischemic stroke, Events %” value [1] was 0.5%, the “Ischemic stroke, Events N” value [1] was 2 N and the “Myocardial infarction, Events %” value [1] was 3.7%. For the same compound, the “Myocardial infarction, Events N” value [1] was 11 N, the “Primary composite outcome, Events %” value [1] was 4.8% and the “Urgent coronary revascularization, Events %” value [1] was 0.8%. For the same compound, the “Urgent coronary revascularization, Events N” value [1] was 3 N, the “Primary composite outcome (cardiovascular mortality, myocardial infarction, ischemic stroke, urgent revascularization), Events N” value (patients with stable CAD; LoDoCo2, N = 2762, median follow-up 28.6 months) was 187 N and the “Cardiovascular mortality, HR (95% CI)” value (patients with stable CAD; LoDoCo2, colchicine vs placebo) was 0.80 (0.44-1.44). The “Ischemic stroke, HR (95% CI)” value (patients with stable CAD; LoDoCo2, colchicine vs placebo) was 0.66 (0.35-1.25), the “Myocardial infarction, HR (95% CI)” value (patients with stable CAD; LoDoCo2, colchicine vs placebo) was 0.70 (0.53-0.93) and the “Primary composite outcome, HR (95% CI)” value (patients with stable CAD; LoDoCo2, colchicine vs placebo) was 0.69 (0.57-0.83). For the same compound, the “Urgent coronary revascularization, HR (95% CI)” value (patients with stable CAD; LoDoCo2, colchicine vs placebo) was 0.75 (0.60-0.94), the “all-cause mortality, HR” value (patients with stable CAD; LoDoCo2, colchicine vs placebo) was 1.21 and the “Myocardial infarction, HR (95% CI)” value (patients with stable CAD; LoDoCo2, colchicine vs placebo, listed as colchicine) was 0.70. For the same compound, the “Cardiovascular mortality, Events %” value (patients with stable CAD; LoDoCo2) was 0.7%, the “Cardiovascular mortality, Events N” value (patients with stable CAD; LoDoCo2) was 20 N and the “Ischemic stroke, Events %” value (patients with stable CAD; LoDoCo2) was 0.6%. The “Ischemic stroke, Events N” value (patients with stable CAD; LoDoCo2) was 16 N, the “Myocardial infarction, Events %” value (patients with stable CAD; LoDoCo2) was 3.0% and the “Myocardial infarction, Events N” value (patients with stable CAD; LoDoCo2) was 83 N. The “Primary composite outcome, Events %” value (patients with stable CAD; LoDoCo2) was “(6.8%)”, the “Urgent coronary revascularization, Events %” value (patients with stable CAD; LoDoCo2) was “(4.9%)” and the “Urgent coronary revascularization, Events N” value (patients with stable CAD; LoDoCo2) was 135 N.
